Test: RP, Waters XBridge C18, 50 × 2.1 mm, 3.5 µm, 30 °C, 0.2 mL/min, estimated dead time 0.55 min; A: water + 0.1% formic acid, pH 3; B: methanol + 0.1% formic acid, pH 3; gradient (min/%B) 0/10 4/50 17/95 25/95 25.1/10 30/10
Settings: stereoisomer not certain

Row | LC retention time [min] | SMILES
1 | 4.4 | c1ccc2n[nH]nc2c1 [1H-Benzotriazole]
2 | 1.7 | O=c1ccn(C2OC(CO)C(O)C2(F)F)c(=O)[nH]1 (configuration not stated) [2',2'-Difluoro-2'-deoxyuridine]
3 | 5.2 | CC(=O)OC1C(C)OC(n2cc(F)c(N)nc2=O)C1OC(C)=O (configuration not stated) [2',3'-di-O-acetyl-5'-deoxy-5-fluorocytidine]
4 | 4 | NC(=O)c1c(Cl)cccc1Cl [2,6-Dichlorobenzamide]
5 | 1.2 | O=S(=O)(O)c1ccc2ccc(S(=O)(=O)O)cc2c1 [2,7-Naphthalenedisulfonic acid]
6 | 2.7 | Nc1nc2ccccc2[nH]1 [2-Aminobenzimidazole]
7 | 4.5 | COC(=O)c1ccccc1S(N)(=O)=O [2-Aminosulfonyl-benzoic acid methyl ester]
8 | 1.7 | COc1nc(C)nc(N)n1 [2-Methyl-4-amino-6-methoxy-s-triazine]
9 | 5.2 | O=S(=O)(O)c1ccc2ccccc2c1 [2-Naphthalenesulfonic acid]
10 | 7.3 | O=C(O)c1cc(Br)c(O)c(Br)c1 [3,5-Dibromo-4-hydroxybenzoic acid]
11 | 11.5 | O=C(O)c1cccc(Oc2ccccc2)c1 [3-Phenoxybenzoic acid]
12 | 9.8 | OCc1cccc(Oc2ccccc2)c1 [3-Phenoxybenzylalcohol]
13 | 15.3 | CCCCCCCCn1sc(Cl)c(Cl)c1=O [4,5-Dichloro-2-n-octyl-3(2H)-isothiazolone (DCOIT)]
14 | 3.7 | CC(=O)Nc1c(C)n(C)n(-c2ccccc2)c1=O [4-Acetamidoantipyrine]
15 | 2.6 | Cc1c(N)c(=O)n(-c2ccccc2)n1C [4-Aminoantipyrine]
16 | 3.7 | Cc1c(NC=O)c(=O)n(-c2ccccc2)n1C [4-Formylaminoantipyrine]
17 | 5.2 | CC(C)c1ccc(N)cc1 [4-Isopropylaniline]
18 | 8.9 | Oc1ccc(C(F)(F)F)cc1 [4-Trifluoromethylphenol]
19 | 1 | O=c1[nH]cc(F)c(=O)[nH]1 [5-Fluorouracil]
20 | 5.8 | Cc1ccc2n[nH]nc2c1 [5-Methyl-1H-benzotriazole]

Row | LC retention time [min] | SMILES
21 | 13.6 | O=C(O)C=C(F)C(F)(F)C(F)(F)C(F)(F)C(F)(F)C(F)(F)F [6:2 fluorotelomer unsaturated carboxylic acid]
22 | 16.1 | O=C(O)C=C(F)C(F)(F)C(F)(F)C(F)(F)C(F)(F)C(F)(F)C(F)(F)C(F)(F)F [8:2 fluorotelomer unsaturated carboxylic acid]
23 | 6.1 | NC(=O)N1c2ccccc2C(O)C(O)c2ccccc21 (stereo not drawn) [10,11-trans-Dihydroxy-10,11-dihydrocarbamazepine]
24 | 1 | CC(=O)NCCCS(=O)(=O)O [Acamprosate]
25 | 1.5 | CC1=CC(=O)NS(=O)(=O)O1 [Acesulfame]
26 | 7.7 | CCOCN(C(=O)CS(=O)(=O)O)c1c(C)cccc1CC [Acetochlor ESA]
27 | 7.5 | CCOCN(C(=O)C(=O)O)c1c(C)cccc1CC [Acetochlor OXA]
28 | 7.7 | CCc1cccc(CC)c1N(COC)C(=O)CS(=O)(=O)O [Alachlor ESA]
29 | 7.4 | CCc1cccc(CC)c1N(COC)C(=O)C(=O)O [Alachlor OXA]
30 | 2 | CC(C)(C)NCC(O)c1ccc(O)c(CO)c1 (configuration not stated) [Albuterol]
31 | 2.6 | Cc1c(N(C)C)c(=O)n(-c2ccccc2)n1C [Aminopyrine]
32 | 3.8 | CCN1CCCC1CNC(=O)c1cc(S(=O)(=O)CC)c(N)cc1OC (configuration not stated) [Amisulpride]
33 | 8.6 | CN(C)CCC=C1c2ccccc2CCc2ccccc21 [Amitriptyline]
34 | 4.6 | Cc1cc(=O)n(-c2ccccc2)n1C [Antipyrine]
35 | 4.8 | COC(=O)C(Cc1ccccc1)NC(=O)C(N)CC(=O)O (configuration not stated) [Aspartame]
36 | 3.8 | CC(C)NCC(O)COc1ccc(CC(=O)O)cc1 (configuration not stated) [Atenolol acid]
37 | 1 | NCC(O)COc1ccc(CC(N)=O)cc1 (configuration not stated) [Atenolol-desisopropyl]
38 | 2 | CC(C)NCC(O)COc1ccc(CC(N)=O)cc1 (configuration not stated) [Atenolol]
39 | 8 | CNCCC(Oc1ccccc1C)c1ccccc1 (configuration not stated) [Atomoxetine]
40 | 12.4 | CC(C)c1c(C(=O)Nc2ccccc2)c(-c2ccccc2)c(-c2ccc(F)cc2)n1CCC(O)CC(O)CC(=O)O (configuration not stated) [Atorvastatin]

Row | LC retention time [min] | SMILES
41 | 1.4 | CC(C)Nc1nc(N)[nH]c(=O)n1 [Atrazine-desethyl-2-hydroxy]
42 | 5.6 | CC(C)Nc1nc(N)nc(Cl)n1 [Atrazine-desethyl]
43 | 4.3 | CCNc1nc(N)nc(Cl)n1 [Atrazine-desisopropyl]
44 | 5.9 | CCC1OC(=O)C(C)C(OC2CC(C)(OC)C(O)C(C)O2)C(C)C(OC2OC(C)CC(N(C)C)C2O)C(C)(O)CC(C)CN(C)C(C)C(O)C1(C)O (configuration not stated) [Azithromycin]
45 | 8.8 | COC=C(C(=O)O)c1ccccc1Oc1cc(Oc2ccccc2C#N)ncn1 [Azoxystrobin (free acid)]
46 | 5.1 | O=c1[nH]sc2ccccc12 [Benzisothiazolone (BIT)]
47 | 12.1 | COc1ccc(C(=O)c2ccccc2)c(O)c1 [Benzophenone-3]
48 | 6.6 | c1ccc2scnc2c1 [Benzothiazole]
49 | 10.6 | CC(C)(Oc1ccc(CCNC(=O)c2ccc(Cl)cc2)cc1)C(=O)O [Bezafibrate]
50 | 20.4 | O=P(O)(OCCC(F)(F)C(F)(F)C(F)(F)C(F)(F)C(F)(F)C(F)(F)C(F)(F)C(F)(F)F)OCCC(F)(F)C(F)(F)C(F)(F)C(F)(F)C(F)(F)C(F)(F)C(F)(F)C(F)(F)F [Bisperfluorodecyl phosphate]
51 | 18.1 | O=P(O)(OCCC(F)(F)C(F)(F)C(F)(F)C(F)(F)C(F)(F)C(F)(F)F)OCCC(F)(F)C(F)(F)C(F)(F)C(F)(F)C(F)(F)C(F)(F)F [Bisperfluorooctyl phosphate]
52 | 14 | CC(C)(c1ccc(O)cc1)c1ccc(O)cc1 [Bisphenol A]
53 | 4 | Cn1c(=O)c2c(ncn2C)n(C)c1=O [Caffeine]
54 | 9.3 | CCOc1nc2cccc(C(=O)O)c2n1Cc1ccc(-c2ccccc2-c2nn[nH]n2)cc1 [Candesartan]
55 | 6.3 | NC(=O)N1c2ccccc2C2OC2c2ccccc21 (configuration not stated) [Carbamazepine-10,11-epoxide]
56 | 7.8 | NC(=O)N1c2ccccc2C=Cc2ccccc21 [Carbamazepine]
57 | 6.6 | CCNC(=O)C(C)OC(=O)Nc1ccccc1 (configuration not stated) [Carbetamide]
58 | 9.3 | O=C(O)COCCN1CCN(C(c2ccccc2)c2ccc(Cl)cc2)CC1 (configuration not stated) [Cetirizine]
59 | 1.3 | Nc1cn[nH]c(=O)c1Cl [Chloridazone-desphenyl]
60 | 2.2 | Cn1ncc(N)c(Cl)c1=O [Chloridazone-methyl-desphenyl]

Row | SMILES | LC retention time [min]
61 | FC(F)(F)c1cccc(N2CCNCC2)c1 [1-(3-(Trifluoromethyl)phenyl)piperazine] | 5.9
62 | Clc1cccc(N2CCNCC2)c1 [1-(3-Chlorophenyl)piperazine] | 5.2
63 | c1ccc(CN2CCNCC2)cc1 [1-Benzylpiperazine] | 1.2
64 | O=C(O)COc1ccc(Cl)cc1Cl [2,4-D] | 9.1
65 | CCCCCCCCn1sccc1=O [2-Octyl-3(2H)-isothiazolone] | 11.6
66 | O=c1[nH]c(Cl)c(Cl)cc1Cl [3,5,6-Trichloro-2-pyridinol] | 9.7
67 | Oc1ccc(Cl)cc1 [4-Chlorophenol] | 7.3
68 | Cn1sc(Cl)cc1=O [5-Chloro-2-methyl-4-isothiazolin-3-one (CMI)] | 3.7
69 | CC(=NC#N)N(C)Cc1ccc(Cl)nc1 [Acetamiprid] | 5.3
70 | CCOCN(C(=O)CCl)c1c(C)cccc1CC [Acetochlor] | 11.7
71 | CCc1cccc(CC)c1N(COC)C(=O)CCl [Alachlor] | 11.7
72 | Cc1ccc(N=CN(C)C=Nc2ccc(C)cc2C)c(C)c1 [Amitraz] | 15.4
73 | CC(N)Cc1ccccc1 (configuration not stated) [Amphetamine] | 3.5
74 | COC(=O)NS(=O)(=O)c1ccc(N)cc1 [Asulam] | 2.4
75 | CCNc1nc(NC(C)C)nc(OC)n1 [Atraton] | 5.7
76 | CCNc1nc(NC(C)C)[nH]c(=O)n1 [Atrazine-2-hydroxy] | 4.4
77 | CCNc1nc(Cl)nc(NC(C)C)n1 [Atrazine] | 8.3
78 | COC=C(C(=O)OC)c1ccccc1Oc1cc(Oc2ccccc2C#N)ncn1 [Azoxystrobin] | 9.9
79 | CC(C)N1C(=O)c2ccccc2NS1(=O)=O [Bentazone] | 7.5
80 | CN1C2CCC1C(C(=O)O)C(OC(=O)c1ccccc1)C2 (configuration not stated) [Benzoylecgonine] | 4.6
81 | CC(O)(CS(=O)(=O)c1ccc(F)cc1)C(=O)Nc1ccc(C#N)c(C(F)(F)F)c1 (configuration not stated) [Bicalutamide] | 9.9
82 | O=C(Nc1ccccc1-c1ccc(Cl)cc1)c1cccnc1Cl [Boscalid] | 10.5
83 | CCC(C)n1c(=O)[nH]c(C)c(Br)c1=O (configuration not stated) [Bromacil] | 7
84 | N#Cc1cc(Br)c(O)c(Br)c1 [Bromoxynil] | 8.3
85 | CC(NC(C)(C)C)C(=O)c1cccc(Cl)c1 (configuration not stated) [Bupropion] | 5.8
86 | Nc1cnn(-c2ccccc2)c(=O)c1Cl [Chloridazon] | 5.2
87 | COP(=S)(OC)Oc1nc(Cl)c(Cl)cc1Cl [Chlorpyrifos-methyl] | 14

Reference: the RepoRT retention time repository (doi:10.1021/es4044374)
